Results as given in the Deep4Chem optical property database.
“And” between values parts separate entries of the source, which are not always exact repeats. Equal values may be shown once.

Assay: solvent given as SMILES

C/C=C/C1=NC(=C\c2ccc(O)cc2)/C(=O)N1C
emission maximum (in ClC(Cl)Cl): 472 nm
emission maximum (in O): 460 nm

N#Cc1ccc(-n2c(-c3ccc(-c4ccc(N(c5ccccc5)c5ccccc5)cc4)s3)nc3c4ccccc4c4ccccc4c32)c2ccccc12
emission maximum (in ClCCl): 408 nm

CC(=O)Nc1cccc2c1C#Cc1c(cccc1C(=O)N(C)C)OCCCO2
emission maximum (in CC#N): 394 nm
emission maximum (in ClCCl): 390 nm

C#CC1CN2CCC1CC2[C@@H](O)c1ccnc2ccc(OC)cc12 (stereo partly drawn)
emission maximum (in C1CCOC1): 361 nm
emission maximum (in CC#N): 358 nm
emission maximum (in CCCC#N): 359 nm
emission maximum (in Cc1ccccc1): 360 nm
emission maximum (in ClCCl): 363 nm

Cc1cn2cc(-c3ccc(C#N)cc3)[n-][n+]2c1
emission maximum (in ClCCl): 518 nm

CNc1ccc2nc3cc(Cl)c(Cl)cc3nc2c1
emission maximum (in CCO): 599 nm

COc1ccc2nc(/N=N/c3ccc(N(C)C)cc3)sc2c1
emission maximum (in CC#N): 574 nm
emission maximum (in ClCCl): 572 nm

CCOC(=O)CCCCCn1c2ccc(OC)cc2c(=O)c2cc3c(cc21)c(=O)c1cc(OC)ccc1n3CCCCCC(=O)OCC
emission maximum (in CCO): 592 nm

COc1ccc(C2=[O+][B-](F)(F)OC(c3ccc4c(c3)Cc3ccccc3-4)=C2)cc1
emission maximum (in CC#N): 466 nm

CC1(C)c2ccccc2N(c2ccc3c(c2)C(C)(C)c2cc(N4c5ccccc5C(C)(C)c5ccccc54)ccc2S3(=O)=O)c2ccccc21
emission maximum (in C1CCOC1): 473.1 nm
emission maximum (in CC#N): 526.32 nm
emission maximum (in Cc1ccccc1): 451.46 nm and 453.62 nm
emission maximum (in ClCCl): 504 nm

C(#Cc1cccs1)C(C#Cc1cccs1)=Cc1ccc(C=C(C#Cc2cccs2)C#Cc2cccs2)cc1
emission maximum (in ClC(Cl)Cl): 498 nm

O=S(=O)(c1ccc(-c2ccc3c(c2)c2ccccc2n3-c2ccccc2)cc1)c1ccc(-c2ccc3c(c2)c2ccccc2n3-c2ccccc2)cc1
emission maximum (in C1CCCCC1): 365.07 nm
emission maximum (in C1CCOC1): 403.28 nm
emission maximum (in CN(C)C=O): 431.81 nm
emission maximum (in Cc1ccccc1): 381 nm
emission maximum (in ClC(Cl)Cl): 402.48 nm
emission maximum (in ClCCl): 415.93 nm

COc1ccc2cc(/C=C/c3ccccc3)c(=O)oc2c1
emission maximum (in CC#N): 464 nm

CCN(CC)c1ccc(/C=N/CC/N=C/c2ccc(N(CC)CC)cc2O)c(O)c1
emission maximum (in CC#N): 415 nm
emission maximum (in CN(C)C=O): 433 nm
emission maximum (in ClCCl): 432 nm

C1=Cc2ccc(N(c3ccccc3)c3cccc4ccccc34)cc2C2(c3cc(N(c4ccccc4)c4cccc5ccccc45)ccc31)c1ccccc1-c1ccccc12
emission maximum (in ClCCl): 454 nm

COC(=O)CNC(=O)CCNc1cccc2ccccc12
emission maximum (in CCO): 417 nm

CCN(CC)c1ccc2cc(-c3ccc(S(C)(=O)=O)cc3)oc(=O)c2c1
emission maximum (in CC(C)=O): 487 nm
emission maximum (in CCCCCC): 419 nm
emission maximum (in CCCCO): 476 nm
emission maximum (in CCCO): 480 nm
emission maximum (in CCO): 485 nm
emission maximum (in CCOC(C)=O): 465 nm
emission maximum (in CN(C)C=O): 499 nm
emission maximum (in CO): 489 nm
emission maximum (in ClC(Cl)Cl): 456 nm

N#CC1=c2cc3c4c(c2Oc2c1cc1c5c2CCCN5CCC1)CCC[N+]=4CCC3
emission maximum (in CCO): 700 nm

CC(C)(C)c1ccc2c(c1)c1cc(C(C)(C)C)ccc1n2-c1nc2ccccc2nc1-n1c2ccc(C(C)(C)C)cc2c2cc(C(C)(C)C)ccc21
emission maximum (in C1CCOC1): 544.34 nm
emission maximum (in CCCCCC): 488.69 nm
emission maximum (in Cc1ccccc1): 527 nm

c1ccc(-c2csc(-c3ccncc3)n2)cc1
emission maximum (in CC#N): 498 nm
emission maximum (in CCO): 407 nm
emission maximum (in CN(C)C=O): 402 nm
emission maximum (in ClCCl): 472 nm

c1cc2ccc3[nH]c4ccc5cccc6c(c1)c2c3c4c56
emission maximum (in ClC(Cl)Cl): 436 nm

CCCCCCOc1cc2cc(=O)oc3ccc4cccc1c4c23
emission maximum (in CC1CCCO1): 468 nm

NS(=O)(=O)c1ccc(N2N=C(c3ccc(O)cc3)CC2c2ccc([N+](=O)[O-])cc2)cc1 (stereo not drawn)
emission maximum (in C1CCOC1): 420 nm
emission maximum (in C1COCCO1): 417 nm
emission maximum (in CC#N): 419 nm
emission maximum (in CC(C)O): 421 nm
emission maximum (in CCO): 422 nm
emission maximum (in CCOC(C)=O): 417 nm
emission maximum (in CN(C)C=O): 422 nm
emission maximum (in CO): 434 nm
emission maximum (in CS(C)=O): 425 nm
emission maximum (in O): 451 nm

COc1cc2cc(C#N)c3ccc4ccccc4c3c2cc1OC
emission maximum (in ClC(Cl)Cl): 399 nm

N#Cc1cc(C#N)cc(-n2c3ccccc3c3cc(-c4ccc5c(c4)c4ccccc4n5-c4cc(C#N)cc(C#N)c4)ccc32)c1
emission maximum (in Cc1ccccc1): 470 nm
emission maximum (in O=P(c1ccccc1)(c1ccccc1)c1ccccc1Oc1ccccc1P(=O)(c1ccccc1)c1ccccc1): 470 nm

CC(C)[Si](C#Cc1c2cc3ccccc3cc2c(C#Cc2ccc(F)cc2)c2cc3ccccc3cc12)(C(C)C)C(C)C
emission maximum (in ClCCl): 660 nm

CN(C)c1ccc2c(-c3cc(C(=O)[O-])ccc3C(=O)[O-])c3ccc(=[N+](C)C)cc-3oc2c1
emission maximum (in CCO): 564 nm
emission maximum (in O): 575 nm

O=c1oc2ccc(Cl)cc2cc1-c1cc2cc(Cl)ccc2o1
emission maximum (in CC#N): 431 nm
emission maximum (in CCOC(C)=O): 429 nm
emission maximum (in CS(C)=O): 488 nm
emission maximum (in Cc1ccccc1): 433 nm
emission maximum (in O): 473 nm
